Experimental data published in US6479435B1, “Diaryl ethers and processes for their preparation and herbicidal and desiccant compositions containing them” (ISK Americas Incorporated, priority 1997, dated 2002).

Tests used:
Type in all cases: in vivo
[1] = system: redroot pigweed (Amaranthus retroflexus, AMARE); assay: Pre-emerge greenhouse herbicide test, phytotoxicity rating; conditions: 14 days after application, rating scale 0-100
Procedure, shortened: (§1)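 Seeds sown in sandy loam one day before track-sprayer application of acetone solutions at 125–1000 g ai/ha (187 l/ha), then surface-watered to incorporate and bottom-watered. Injury scored visually at 14 days on a 0–100 scale (0 no damage, 100 complete death).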

[2] = system: sicklepod (Cassia obtusifolia, CASOB); assay: as above; conditions: 14 days after application, rating scale 0-100
Procedure, shortened: as §1

[3] = system: barnyardgrass (Echinochloa crusgalli, ECHCG); assay: as above; conditions: 14 days after application, rating scale 0-100
Procedure, shortened: as §1

[4] = system: ivyleaf morningglory (Ipomoea hederacea, IPOHE); assay: as above; conditions: 14 days after application, rating scale 0-100
Procedure, shortened: as §1

[5] = system: green foxtail (Setaria viridis, SETVI); assay: as above; conditions: 14 days after application, rating scale 0-100
Procedure, shortened: as §1

[6] = system: Johnsongrass (Sorghum halepense, SORHA); assay: as above; conditions: 14 days after application, rating scale 0-100
Procedure, shortened: as §1

[7] = system: common ragweed (Ambrosia artemisiifolia L., AMBEL); assay: as above; conditions: 14 days after application, rating scale 0-100
Procedure, shortened: as §1

[8] = system: lambsquarters (Chenopodium album, CHEAL); assay: as above; conditions: 14 days after application, rating scale 0-100
Procedure, shortened: as §1

[9] = system: large crabgrass (Digitaria sanguinalis, DIGSA); assay: as above; conditions: 14 days after application, rating scale 0-100
Procedure, shortened: as §1

[10] = system: velvetleaf (Abutilon theophrasti, ABUTH); assay: as above; conditions: 14 days after application, rating scale 0-100
Procedure, shortened: as §1

[11] = system: redroot pigweed (Amaranthus retroflexus, AMARE); assay: Post-emerge greenhouse herbicide test, phytotoxicity rating; conditions: 14 days after application
Procedure, shortened: (§2)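 Plants at the 2-3 leaf stage, sown 8-21 days earlier, were track-sprayed post-emergence with compound in acetone plus 0.25% v/v non-ionic surfactant at 63-1000 g ai/ha (187 l/ha). Damage was rated at 14 days on a 0-100 scale (0 none, 100 all plants dead), for both crop injury and weed control.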

[12] = system: sicklepod (Cassia obtusifolia, CASOB); assay: as above; conditions: 14 days after application
Procedure, shortened: as §2

[13] = system: barnyardgrass (Echinochloa crusgalli, ECHCG); assay: as above; conditions: 14 days after application
Procedure, shortened: as §2

[14] = system: ivyleaf morningglory (Ipomoea hederacea, IPOHE); assay: as above; conditions: 14 days after application
Procedure, shortened: as §2

[15] = system: green foxtail (Setaria viridis, SETVI); assay: as above; conditions: 14 days after application
Procedure, shortened: as §2

[16] = system: Johnsongrass (Sorghum halepense, SORHA); assay: as above; conditions: 14 days after application
Procedure, shortened: as §2

[17] = system: lambsquarters (Chenopodium album, CHEAL); assay: as above; conditions: 14 days after application
Procedure, shortened: as §2

[18] = system: large crabgrass (Digitaria sanguinalis, DIGSA); assay: as above; conditions: 14 days after application
Procedure, shortened: as §2

[19] = system: velvetleaf (Abutilon theophrasti, ABUTH); assay: as above; conditions: 14 days after application
Procedure, shortened: as §2

[20] = system: field corn (Zea mays L., var. Dekalb 535, CORN); assay: Pre-emerge greenhouse test, crop damage rating; conditions: 14 days after application, rating scale 0-100
Procedure, shortened: as §1

[21] = system: upland rice (Oryza sp., var.Tebonnet, RICE); assay: Pre-emerge greenhouse test, crop damage rating; conditions: 14 days after application, rating scale 0-100
Procedure, shortened: as §1

[22] = system: field corn (Zea mays L., var. Dekalb 535, CORN); assay: Post-emerge greenhouse test, crop damage rating; conditions: 14 days after application
Procedure, shortened: as §2

[23] = system: upland rice (Oryza sp., var.Tebonnet, RICE); assay: Post-emerge greenhouse test, crop damage rating; conditions: 14 days after application
Procedure, shortened: as §2

[24] = system: common ragweed (Ambrosia artemisiifolia L., AMBEL); assay: Post-emerge greenhouse herbicide test, phytotoxicity rating; conditions: 14 days after application
Procedure, shortened: as §2

[25] = system: soybean (Glycine max L., var. Pella 86, SOY); assay: Post-emerge greenhouse test, crop damage rating; conditions: 14 days after application
Procedure, shortened: as §2

[26] = system: soybean (Glycine max L., var. Pella 86, SOY); assay: Pre-emerge greenhouse test, crop damage rating; conditions: 14 days after application, rating scale 0-100
Procedure, shortened: as §1

Structure (SMILES): Cc1nn(-c2cc(Oc3ncccn3)c(Cl)cc2F)c(=O)n1C(F)F [Compound 3-1, 1-[4-chloro-2-fluoro-5-(2-pyrimidyloxy)phenyl]-4-difluoromethyl-3-methyl-1,4-dihydro-1,2,4-triazolin-5-one]
- phytotoxicity rating AMARE ([1]; 125 g ai/ha): 100
- phytotoxicity rating AMARE ([1]; 500 g ai/ha): 100
- phytotoxicity rating CASOB ([2]; 125 g ai/ha): 100
- phytotoxicity rating CASOB ([2]; 500 g ai/ha): 100
- phytotoxicity rating ECHCG ([3]; 125 g ai/ha): 100
- phytotoxicity rating ECHCG ([3]; 500 g ai/ha): 100
- phytotoxicity rating IPOHE ([4]; 125 g ai/ha): 100
- phytotoxicity rating IPOHE ([4]; 500 g ai/ha): 100
- phytotoxicity rating SETVI ([5]; 125 g ai/ha): 100
- phytotoxicity rating SETVI ([5]; 500 g ai/ha): 100
- phytotoxicity rating SORHA ([6]; 125 g ai/ha): 100
- phytotoxicity rating SORHA ([6]; 500 g ai/ha): 100
- phytotoxicity rating AMBEL ([7]; 125 g ai/ha): 100
- phytotoxicity rating AMBEL ([7]; 500 g ai/ha): 100
- phytotoxicity rating CHEAL ([8]; 125 g ai/ha): 100
- phytotoxicity rating CHEAL ([8]; 500 g ai/ha): 100
- phytotoxicity rating DIGSA ([9]; 125 g ai/ha): 100
- phytotoxicity rating DIGSA ([9]; 500 g ai/ha): 100
- phytotoxicity rating ABUTH ([10]; 125 g ai/ha): 100
- phytotoxicity rating ABUTH ([10]; 500 g ai/ha): 100
- AMARE phytotoxicity rating (0-100) ([11]; 63 g al/ha): 95
- AMARE phytotoxicity rating (0-100) ([11]; 500 g al/ha): 100
- CASOB phytotoxicity rating (0-100) ([12]; 63 g al/ha): 90
- CASOB phytotoxicity rating (0-100) ([12]; 500 g al/ha): 100
- ECHCG phytotoxicity rating (0-100) ([13]; 63 g al/ha): 70
- ECHCG phytotoxicity rating (0-100) ([13]; 500 g al/ha): 100
- IPOHE phytotoxicity rating (0-100) ([14]; 63 g al/ha): 100
- IPOHE phytotoxicity rating (0-100) ([14]; 500 g al/ha): 100
- SETVI phytotoxicity rating (0-100) ([15]; 63 g al/ha): 95
- SETVI phytotoxicity rating (0-100) ([15]; 500 g al/ha): 100
- SORHA phytotoxicity rating (0-100) ([16]; 63 g al/ha): 80
- SORHA phytotoxicity rating (0-100) ([16]; 500 g al/ha): 100
- CHEAL phytotoxicity rating (0-100) ([17]; 63 g al/ha): 95
- CHEAL phytotoxicity rating (0-100) ([17]; 500 g al/ha): 100
- DIGSA phytotoxicity rating (0-100) ([18]; 63 g al/ha): 80
- DIGSA phytotoxicity rating (0-100) ([18]; 500 g al/ha): 100
- ABUTH phytotoxicity rating (0-100) ([19]; 63 g al/ha): 100
- ABUTH phytotoxicity rating (0-100) ([19]; 500 g al/ha): 100
- crop damage rating CORN ([20]; 125 g ai/ha): 90
- crop damage rating CORN ([20]; 500 g ai/ha): 100
- crop damage rating RICE ([21]; 125 g ai/ha): 99
- crop damage rating RICE ([21]; 500 g ai/ha): 100
- CORN crop damage rating (0-100) ([22]; 63 g al/ha): 25
- CORN crop damage rating (0-100) ([22]; 500 g al/ha): 100
- RICE crop damage rating (0-100) ([23]; 63 g al/ha): 70
- RICE crop damage rating (0-100) ([23]; 500 g al/ha): 100
- AMBEL phytotoxicity rating (0-100) ([24]; 63 g al/ha): 70
- AMBEL phytotoxicity rating (0-100) ([24]; 500 g al/ha): 100
- SOY crop damage rating (0-100) ([25]; 63 g al/ha): 100
- SOY crop damage rating (0-100) ([25]; 500 g al/ha): 100
- crop damage rating SOY ([26]; 125 g ai/ha): 90
- crop damage rating SOY ([26]; 500 g ai/ha): 100

Structure (SMILES): Cn1c(C(F)(F)F)nc(-c2cc(Oc3ncccc3C(F)(F)F)c(Cl)cc2F)c1Cl [Compound 2-2]
- phytotoxicity rating AMARE ([1]; 500 g ai/ha): 100
- phytotoxicity rating CASOB ([2]; 500 g ai/ha): 0
- phytotoxicity rating ECHCG ([3]; 500 g ai/ha): 0
- phytotoxicity rating IPOHE ([4]; 500 g ai/ha): 60
- phytotoxicity rating SETVI ([5]; 500 g ai/ha): 100
- phytotoxicity rating SORHA ([6]; 500 g ai/ha): 30
- phytotoxicity rating AMBEL ([7]; 500 g ai/ha): 20
- phytotoxicity rating CHEAL ([8]; 500 g ai/ha): 60
- phytotoxicity rating DIGSA ([9]; 500 g ai/ha): 20
- phytotoxicity rating ABUTH ([10]; 500 g ai/ha): 10
- AMARE phytotoxicity rating (0-100) ([11]; 500 g al/ha): 95
- CASOB phytotoxicity rating (0-100) ([12]; 500 g al/ha): 0
- ECHCG phytotoxicity rating (0-100) ([13]; 500 g al/ha): 30
- IPOHE phytotoxicity rating (0-100) ([14]; 500 g al/ha): 75
- SETVI phytotoxicity rating (0-100) ([15]; 500 g al/ha): 30
- SORHA phytotoxicity rating (0-100) ([16]; 500 g al/ha): 40
- CHEAL phytotoxicity rating (0-100) ([17]; 500 g al/ha): 90
- DIGSA phytotoxicity rating (0-100) ([18]; 500 g al/ha): 10
- ABUTH phytotoxicity rating (0-100) ([19]; 500 g al/ha): 70
- crop damage rating CORN ([20]; 500 g ai/ha): 0
- crop damage rating RICE ([21]; 500 g ai/ha): 0
- CORN crop damage rating (0-100) ([22]; 500 g al/ha): 20
- RICE crop damage rating (0-100) ([23]; 500 g al/ha): 40
- AMBEL phytotoxicity rating (0-100) ([24]; 500 g al/ha): 25
- SOY crop damage rating (0-100) ([25]; 500 g al/ha): 35
- crop damage rating SOY ([26]; 500 g ai/ha): 15
